# According to US20120115742A1, “METHODS FOR IDENTIFICATION” (Cambridge Enterprise Limited, priority 2009, published 2012):
# Legend:
# [1] = system: fetal rat pituicytes; test: Rat pituicyte GH suppression assay; assay type: cell-based; conditions: Table 3
# Source text: Two different assays for “classical” sstr2 functions were adopted: (1) cultured foetal rat pituitary cells secreted growth hormone which is inhibited by sstr2 agonists in a dose-dependent fashion and (2) selected glucose-sensitive sub-clones of the human Panc-1 cell line secrete insulin which is inhibited by sstr2 agonists in a dose-dependent fashion.
# Methods: Cultures of fetal rat pituicytes were established exactly as previously described (Murray et al. (2004) J. Clin. Endocrinol. Metab. 89:3027-32) by enzymatic dispersion. After 48 hrs in low glucose DMEM plus 10% FCS, cells in 48 well plates (5×10^4 cells per well) were washed for 4 hrs in serum-free DMEM and then incubated with test agents at various concentrations for a further 24 hrs in serum-free DMEM. At the end of this period, the conditioned medium was harvested, any cell debris removed by centrifugation and assayed for […] using a commercially available ELISA (Linco; cat# EZRMGH-45K) in accordance with the manufacturer's instructions.
# Results were reported as the mean SD, expressed as the fold change from cells in the presence of vehicle only.
# [2] = system: rat peripheral blood leukocytes; test: Rat chemokine-induced PBMC migration assay; assay type: cell-based
# Procedure: Similarly, where human Panc-2H4 cells are used to determine the effect of agents on classical sstr2 targets, the result is compared with the effect of the same agents on chemokine-induced migration of human THP-1 cells. […] For this reason, the ratio of “classical” to “BSCI” activity in Table 3 is calculated separately for rat and human.
# [3] = biological target: T1, sstr2 (Homo sapiens, UniProt P30874); test: [3H]-BN83250 equilibrium binding to THP-1 cells (Scatchard/competition); conditions: THP-1 cells, 2 hours at 4° C.; read-out: affinity (Scatchard analysis)
# T1 construct: with 1×10^6 THP-1 cells in Gey's Balanced Salt Solution, 10 nM [^3H]-BN83250; endogenous in cells; host or cells: THP-1 cells (intact cells, 4 °C)
# T1 sequence (P30874 whole entry): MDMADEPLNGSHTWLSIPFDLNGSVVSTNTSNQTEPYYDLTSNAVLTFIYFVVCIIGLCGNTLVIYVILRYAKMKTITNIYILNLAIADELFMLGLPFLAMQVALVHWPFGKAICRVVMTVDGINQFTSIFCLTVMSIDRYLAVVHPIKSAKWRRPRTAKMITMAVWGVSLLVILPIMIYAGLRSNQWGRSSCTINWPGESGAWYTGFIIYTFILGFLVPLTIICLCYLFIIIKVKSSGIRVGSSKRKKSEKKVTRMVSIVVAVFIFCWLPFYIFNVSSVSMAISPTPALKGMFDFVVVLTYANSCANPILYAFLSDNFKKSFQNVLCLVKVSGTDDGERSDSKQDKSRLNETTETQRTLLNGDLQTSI
# Procedure: Methods: [^3H]-BN83250 was synthesesized from (S,E)-3-(2′,2′-dimethyldodec-4′-enoylamino)-caprolactam by catalytic hydrogenation using tritium gas over a palladium catalyst (CRB Ltd, Cleveland, UK), yielding the tritiated product at a concentration of 270 μM in ethanol with a specific activity of 220Ci/mmol. The (S,E)-3-(2′,2′-dimethyldodec-4′-enoylamino)-caprolactam was prepared as follows: (S,S)-3-amino-caprolactam hydro-pyrrolidine-5-carboxylate (10 mmol) and Na2CO3 (30 mmol) in water (30 ml) were added to a solution of 2,2-dimethyl-dodec-4-enoyl chloride (10 mmol) in dichloromethane (30 ml) at ambient temperature and the reaction was stirred for 12 hours. The organic layer was then separated and the aqueous phase was extracted with additional dichloromethane (2×25 ml). The combined organic layers were dried over Na2CO3 and reduced in vacuo. The residue was purified by silica column chromatography (1:1 EtOAc:hexanes to EtOAc) to give (S,E)-3-(2′,2′-dimethyl-dodec-4′-enoyl)amino-caprolactam as a colourless oil (2.12 g, 63%). The radiolabelled compound was stored in the dark at 4° C. until required. Prior to use the specific activity was adjusted by addition of unlabelled BN83250.
# For the analysis of binding, individual reactions were set up (in triplicate for each condition), with 1×10^6 THP-1 cells in Gey's Balanced Salt Solution, 10 nM [^3H]-BN83250 (at 50 Ci/mmol) and various concentrations of (S)-3(2′2′-dimethylpropionoylamino)-tetrahydropyridin-2-one (10 pM to 10 μM). Excess (100 μM) unlabelled BN83250 was used to determine the level of non-specific binding. After 2 hours at 4° C. (conditions previously shown to achieve equilibrium binding, and which prevent uptake of the radioligand that would result in an over-estimate of binding) excess label was washed away by centrifugation (3 washes with 5 ml of Gey's Balanced Salt Solution) and the bound radioactivity was determined by scintillation counting of the solubilised cell pellet.
# Hits from this assay were confirmed using conventional Scatchard analysis, exactly as described in Example 4 above.
substance,measurement,setting,value
"(S)-3-(2′,2′-dimethyldodecanoyl)amino-caprolactam [BN83250]",EC50,[1]; read-out: Rat pituicyte GH suppression assay ED50,320 nM
same,Rat pituicyte GH suppression assay Max effect,[1]; suppression compared to vehicle,63%
same,"“Classical”:“BSCI” potency ratio, Rat",[2]; PBMC migration ED50 versus pituicyte GH ED50,0.0009
same,Rat chemokine-induced PBMC migration assay Max effect,[2]; Table 3,100%
same,Kd,[3],~80 nM
